Measurements: patent US10508109B2 (priority 2015, dated 2019)
Like-named read-outs stand apart in the source and are kept apart here.

Tests used:
A549 = test: Cell-based assay, anti-proliferative activity (Cell Counting Kit-8, 72 hours); details: Homo sapiens, read-out: IC50 (μM) A549
Outline: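 IC50 values come from growth read-outs taken after the cells' exposure to each candidate inhibitor. Cells had been plated in 96-well microtiter plates beforehand.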

SUV39H2 = SUV39H2 (Homo sapiens (Human), UniProt Q9H5I1); details: read-out: IC50 (μM) Suv 39H2 assay; enzyme assay
HFL1 = test: Cell-based assay, anti-proliferative activity (Cell Counting Kit-8, 72 hours); details: Homo sapiens, read-out: IC50 (μM) HFL1
Outline: (§1)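 Growth inhibition is read by Cell Counting Kit-8 after three days of compound treatment. Test concentrations span 0, 1.5625, 3.125, 6.25, 12.5, 25, 50 and 100 micro-M, and IC50 serves as the anti-proliferative measure.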

PC14 = test: as above; details: Homo sapiens, read-out: IC50 (μM) PC14
Outline: as §1

CCD-18Co = test: as above; details: Homo sapiens, read-out: IC50 (μM) CCD-18Co
Outline: as §1

HCT-116 = test: as above; details: Homo sapiens, read-out: IC50 (μM) HCT-116
Outline: as §1

[1] = A549 cells, 72 hours, Cell Counting Kit-8
[2] = HFL1 cells, 72 hours, Cell Counting Kit-8
[3] = PC-14, PC14 cells, 72 hours, Cell Counting Kit-8
[4] = CCD-18Co cells, 72 hours, Cell Counting Kit-8
[5] = HCT-116 cells, 72 hours, Cell Counting Kit-8

Sequence of SUV39H2 (Q9H5I1 whole entry): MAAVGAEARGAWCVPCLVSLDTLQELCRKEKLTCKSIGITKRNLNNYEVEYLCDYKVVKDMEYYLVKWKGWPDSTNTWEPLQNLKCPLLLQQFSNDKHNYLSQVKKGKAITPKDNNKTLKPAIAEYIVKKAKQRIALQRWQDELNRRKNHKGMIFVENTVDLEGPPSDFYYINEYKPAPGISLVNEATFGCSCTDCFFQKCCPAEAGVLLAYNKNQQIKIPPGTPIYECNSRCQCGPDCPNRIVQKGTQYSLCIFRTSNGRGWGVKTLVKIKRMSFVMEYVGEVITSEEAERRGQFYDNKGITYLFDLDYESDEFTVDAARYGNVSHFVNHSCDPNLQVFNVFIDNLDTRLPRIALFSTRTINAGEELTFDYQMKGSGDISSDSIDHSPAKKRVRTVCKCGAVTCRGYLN

Structure (SMILES) | IC50 (A549; [1]) | IC50 (SUV39H2) | IC50 (HFL1; [2]) | IC50 (PC14; [3]) | IC50 (CCD-18Co; [4]) | IC50 (HCT-116; [5]) | IC50 (A549; A549, 72 h) | IC50 (HFL1; HFL1, 72 h) | IC50 (PC14; PC-14, 72 h) | IC50 (CCD-18Co; CCD-18Co, 72 h) | IC50 (HCT-116; HCT-116, 72 h)
COc1cc(C)c(-c2cn3ccc(N4CCN(S(=O)(=O)C5CC5)C(COCCN(C)C)C4)cc3n2)cc1Cl (stereo not drawn) [Example 264, 2-((4-(2-(5-chloro-4-methoxy-2-methylphenyl)imidazo[1,2-a]pyridin-7-yl)-1-(cyclopropylsulfonyl)piperazin-2-yl)methoxy)-N,N-dimethylethanamine] | 5.6 µM | 0.07 µM | 4.7 µM | 4.5 µM | 5 µM | 8.5 µM | – | – | – | – | –
COc1cc(OC)c(-c2cn3ccc(-c4ccc(C(=O)NCCCN)cc4)cc3n2)cc1Cl [Example 265, N-(3-aminopropyl)-4-(2-(5-chloro-2,4-dimethoxyphenyl)imidazo-[1,2-a]pyridin-7-yl)benzamide] | 5.5 µM | 0.036 µM | 4.7 µM | 4.2 µM | 7.3 µM | 5.2 µM | – | – | – | – | –
CC[C@H](C)[C@H](NC)C(=O)Nc1ccn2cc(-c3cc(Cl)c(OC)cc3OC)nc2c1 [Example 266, (2S,3S)—N-(2-(5-chloro-2,4-dimethoxyphenyl)imidazo[1,2-a]pyridin-7-yl)-3-methyl-2-(methylamino)pentanamide] | 1.5 µM | 0.0454 µM | 1.2 µM | 1.5 µM | 1.3 µM | 2.8 µM | – | – | – | – | –
COc1cc(OC)c(-c2cn3ccc(-c4ccc(C(=O)NCC5CCNCC5)cc4)cc3n2)cc1Cl [Example 267, 4-(2-(5-chloro-2,4-dimethoxyphenyl)imidazo[1,2-a]pyridin-7-yl)-N-(piperidin-4-ylmethyl)benzamide] | 10 µM | 0.0458 µM | 10 µM | 10 µM | 10 µM | 10 µM | – | – | – | – | –
COc1cc(OC)c(-c2cn3ccc(-c4ccc(C(=O)NC5CCNCC5)cc4)cc3n2)cc1Cl [Example 268, 4-(2-(5-chloro-2,4-dimethoxyphenyl)imidazo[1,2-a]pyridin-7-yl)-N-(piperidin-4-yl)benzamide] | 4.3 µM | 0.0383 µM | 3.8 µM | 3 µM | 4.3 µM | 2.8 µM | – | – | – | – | –
COc1cc(OC)c(-c2cn3ccc(-c4ccc(C(=O)NCCNCCNC(=O)OC(C)(C)C)cc4)cc3n2)cc1Cl [Example 269, tert-butyl (2-((2-(4-(2-(5-chloro-2,4-dimethoxyphenyl)imidazo[1,2-a]pyridin-7-yl)benzamido)ethyl)amino)ethyl)carbamate] | 1.2 µM | 0.0408 µM | 1.3 µM | 0.94 µM | 0.87 µM | 0.75 µM | – | – | – | – | –
COc1cc(OC)c(-c2cn3ccc(-c4ccc(NCc5ncc[nH]5)cc4)cc3n2)cc1Cl [Example 270, N-((1H-imidazol-2-yl)methyl)-4-(2-(5-chloro-2,4-dimethoxyphenyl)-imidazo[1,2-a]pyridin-7-yl)aniline] | 0.99 µM | 0.0199 µM | 0.89 µM | 0.45 µM | 1.7 µM | 1 µM | – | – | – | – | –
COc1cc(OC)c(-c2nc3cc(N4CCN(C(=O)OC(C)(C)C)CC4)ccn3c2Br)cc1Cl [Example 271, tert-butyl 4-(3-bromo-2-(5-chloro-2,4-dimethoxy-phenyl)imidazo[1,2-a]pyridin-7-yl)piperazine-1-carboxylate] | 1.3 µM | 0.0267 µM | 1.2 µM | 0.57 µM | 1.4 µM | 1.5 µM | – | – | – | – | –
COc1cc(OC)c(-c2cn3ccc(NC(=O)[C@H](C(C)C)N(C)C)cc3n2)cc1Cl [Example 272, (S)—N-(2-(5-chloro-2,4-dimethoxyphenyl)imidazo[1,2-a]pyridin-7-yl)-2-(dimethylamino)-3-methylbutanamide] | – | 0.0961 µM | – | – | – | – | 0.86 µM | 0.45 µM | 0.98 µM | 0.47 µM | 2.9 µM
COc1cc(OC)c(-c2cn3ccc(N4CCN(C(=O)OC(C)(C)C)C(C)C4)cc3n2)cc1Cl (stereo not drawn) [Example 275, tert-butyl 4-(2-(5-chloro-2,4-dimethoxyphenyl)imidazo[1,2-a]pyridin-7-yl)-2-methylpiperazine-1-carboxylate] | 1.3 µM | 0.00333 µM | 1.1 µM | 0.87 µM | 1.4 µM | 1.4 µM | – | – | – | – | –
COc1cc(OC)c(-c2cn3ccc(N4CCN(c5ccccn5)CC4)cc3n2)cc1Cl [Example 276, 2-(5-chloro-2,4-dimethoxyphenyl)-7-(4-(pyridin-2-yl)piperazin-1-yl)-imidazo[1,2-a]pyridine] | 1.2 µM | 0.00774 µM | 0.69 µM | 1.2 µM | 1.1 µM | 0.71 µM | – | – | – | – | –
COC(=O)N[C@H]1CC[C@H](Nc2ccn3cc(-c4cc(Cl)c(OC)cc4OC)nc3c2)CC1 [Example 277, (methyl-4-((2-(5-chloro-2,4-dimethoxyphenyl)imidazo[1,2-a]pyridin-7-yl)amino)-trans-cyclohexyl)carbamate] | 0.98 µM | 0.00524 µM | 0.7 µM | 0.93 µM | 0.78 µM | 0.8 µM | – | – | – | – | –
COc1cc(OC)c(-c2cn3ccc(N[C@H]4CC[C@H](CN5CCN(Cc6ccccc6)CC5)CC4)cc3n2)cc1Cl [Example 278, trans-N-(4-((4-benzylpiperazin-1-yl)methyl)cyclohexyl)-2-(5-chloro-2,4-dimethoxyphenyl)imidazo[1,2-a]pyridin-7-amine 2,2,2-trifluoroacetate] | 1.4 µM | 0.0707 µM | – | – | – | – | – | 0.73 µM | 1.3 µM | 1.2 µM | 0.84 µM
COc1cc(OC)c(-c2cn3ccc(N4CCN(c5ccnc(N)n5)CC4)cc3n2)cc1Cl [Example 279, 4-(4-(2-(5-chloro-2,4-dimethoxyphenyl)imidazo[1,2-a]pyridin-7-yl)-piperazin-1-yl)pyrimidin-2-amine] | 0.32 µM | 0.00938 µM | 0.33 µM | 0.38 µM | 0.33 µM | 0.32 µM | – | – | – | – | –
COc1cc(OC)c(-c2cn3ccc(OC4CCN(S(=O)(=O)c5cccs5)CC4)cc3n2)cc1Cl [Example 280, 2-(5-chloro-2,4-dimethoxyphenyl)-7-((1-(thiophen-2-ylsulfonyl)piperidin-4-yl)oxy)imidazo[1,2-a]pyridine] | 2 µM | 0.0711 µM | 1.6 µM | 0.8 µM | 1.7 µM | 1.9 µM | – | – | – | – | –
COc1cc(OC)c(-c2cn3ccc(N4CCN(c5cccc(F)n5)CC4)cc3n2)cc1Cl [Example 281, 2-(5-chloro-2,4-dimethoxyphenyl)-7-(4-(6-fluoropyridin-2-yl)piperazin-1-yl)imidazo[1,2-a]pyridine] | 1.2 µM | 0.0988 µM | 0.76 µM | 0.9 µM | 0.83 µM | 0.82 µM | – | – | – | – | –
COc1cc(OC)c(-c2cn3ccc(N4CCN(c5ccccc5)CC4)cc3n2)cc1Cl [Example 282, 2-(5-chloro-2,4-dimethoxyphenyl)-7-(4-phenylpiperazin-1-yl)-imidazo[1,2-a]pyridine] | 1.5 µM | 0.0349 µM | 1.4 µM | 0.96 µM | 1.5 µM | 1.4 µM | – | – | – | – | –
